Assay results reported in patent publication US9277747B2, “Agricultural composition comprising pH sensitive agricultural chemicals and organic pH buffer” (NUTRIAG LTD., priority 2010, dated 2016).

Legend:
[1] = known triarylmethane dyes; colour change from lower pH to higher pH; cited from earlier work
[2] = Storage stability of concentrates at elevated temperatures; conditions: pH indicator in agricultural concentrate with carbohydrate acids as pH modifying agent

Structure (SMILES): Cc1c(C2(c3cc(Br)c(O)c(Br)c3C)OS(=O)(=O)c3ccccc32)cc(Br)c(O)c1Br [bromocresol green]
- Range of pH colour transition [1]: pH 3.8-5.4

Structure (SMILES): Cc1cc(C2(c3cc(C)c(O)c(Br)c3)OS(=O)(=O)c3ccccc32)cc(Br)c1O [bromocresol purple]
- Range of pH colour transition [1]: pH 5.2-6.8

Structure (SMILES): O=S1(=O)OC(c2cc(Br)c(O)c(Br)c2)(c2cc(Br)c(O)c(Br)c2)c2ccccc21 [bromophenol blue]
- Range of pH colour transition [1]: pH 3.0-4.6

Structure (SMILES): O=S1(=O)OC(c2ccc(O)c(Cl)c2)(c2ccc(O)c(Cl)c2)c2ccccc21 [chlorophenol red]
- stability of the pH indicator in the presence of carbohydrate acids / carbohydrate acid mixture [2]: low stability
- Range of pH colour transition [1]: pH 4.8-6.7
